These results are taken from patent US20170342021A1, “RAS-INHIBITING INDENYL ACETAMIDE COMPOUNDS, COMPOSITIONS, AND USES” (ADT Pharmaceuticals, Inc., priority 2014, published 2017).

As usually defined, the IC50 is the point on the concentration scale where inhibition reaches its midpoint.

Assay [1] has as its system cells expressing oncogenic H-Ras. The note with it: literature value, NIH probe report, cited from earlier work.
Another assay deals with Caco-2. Briefly: CellTiter-Glo growth inhibition, Caco-2. The note with it: ten-fold serial dilutions, wild type Ras line. It is filed as cell-based, human. Here is the method: (§1) This example illustrates cell growth assays that can be employed in the present invention. […] Normal rat kidney (NRK) and Ki-Ras transformed NRK cells (K-NRK) are obtained from ATCC, and were cultured according to supplier recommendations. CellTiter-Glo ATP cell growth assay reagents are obtained from Promega and used according to the manufacturer's protocol. Inhibitors of EGFR, Raf, and MEK are obtained from Selleck Chemicals. Cells are plated at a density of 5,000 cells per well in 96-well microplates or 1,250 cells per well in 384-well plates, and allowed to attach for at least 4 h. Test compounds are dissolved in dimethyl sulfoxide (DMSO), and this working stock is further diluted in growth medium for addition to cell cultures. Serial dilutions of the test compound are prepared in growth medium containing an equal amount of DMSO not exceeding 0.2% final concentration. Each compound concentration is tested in at least 3 separate samples per cell line. At the end of a 3-day treatment period, growth inhibition is analyzed using a bioluminescent assay of ATP concentration (Promega CellTiter-Glo) according to the manufacturer's protocol. The resulting luminescence is measured using the luminescence cartridge of the Molecular Devices Spectramax Paradigm microplate reader. The relative growth inhibition for each sample is determined by comparison with the values obtained for vehicle treated control samples. Growth inhibition values are plotted with the GraphPad Prism5 software using the 4-parameter logistic fit to obtain IC50 values, which corresponds to the growth inhibitory potency of the compound.
(§2) Cells were seeded in 384-well plates and allowed to attach. Ten-fold serial dilutions of compounds were tested. Each compound concentration was tested in at least 3 separate samples per cell line.
(In general: ATP-based viability assays read luminescence as a measure of living cells.)

A further assay deals with DLD-1. Briefly: CellTiter-Glo growth inhibition, DLD-1. It is filed as cell-based, human. The note with it: ten-fold serial dilutions, ras-mutant line. Here is the method: as §1, §2
The next assay relates to SW-480. In words: CellTiter-Glo growth inhibition, SW-480. As to conditions: ten-fold serial dilutions, ras-mutant line. It is filed as cell-based, human. Here is the method:
as §1, §2

The test system of a further assay is HT-29. Briefly: CellTiter-Glo growth inhibition, HT-29. As to conditions: ten-fold serial dilutions, wild type Ras line. It is filed as cell-based, human. How it is done:
as §1, §2

The next assay deals with HCT-116. Briefly: CellTiter-Glo growth inhibition, HCT-116. The class given is cell-based, human. The note with it: ten-fold serial dilutions, ras-mutant line. How it is done:
as §1, §2

Another assay relates to COLO-205. Briefly: CellTiter-Glo growth inhibition, COLO-205. As to conditions: ten-fold serial dilutions, wild type Ras line, lowest level of active Ras. The class given is cell-based, human. How it is done:
as §1, §2

In assay [2] the test system is SW-480 colon tumor cells expressing mutant Ras, compared to HT-29 expressing wild-type Ras. Briefly: Ras selectivity by growth inhibition, HT-29 versus SW-480. It is filed as cell-based, human. The note with it: ratio of IC50 in HT-29 to IC50 in SW-480; 5000 cells/well, 96-well plates, Cell Titer Glo. Here is the method:
(§3) This example illustrates cell growth assays that can be employed in the present invention. Cells can include A-549, HT-29, MDA-MB-231, Colo-205, Caco2, HCT-116, SW-480, and DLD-1 human cancer cells obtained from the American Type Culture Collection (ATCC). Human tumor cells are cultured using standard methods in RPMI-1640 growth medium supplemented with 5% fetal bovine serum (FBS). Normal rat kidney (NRK) and Ki-Ras transformed NRK cells (K-NRK) are obtained from ATCC, and were cultured according to supplier recommendations. CellTiter-Glo ATP cell growth assay reagents are obtained from Promega and used according to the manufacturer's protocol. Inhibitors of EGFR, Raf, and MEK are obtained from Selleck Chemicals. Cells are plated at a density of 5,000 cells per well in 96-well microplates or 1,250 cells per well in 384-well plates, and allowed to attach for at least 4 h. Test compounds are dissolved in dimethyl sulfoxide (DMSO), and this working stock is further diluted in growth medium for addition to cell cultures. Serial dilutions of the test compound are prepared in growth medium containing an equal amount of DMSO not exceeding 0.2% final concentration. Each compound concentration is tested in at least 3 separate samples per cell line. At the end of a 3-day treatment period, growth inhibition is analyzed using a bioluminescent assay of ATP concentration (Promega CellTiter-Glo) according to the manufacturer's protocol. The resulting luminescence is measured using the luminescence cartridge of the Molecular Devices Spectramax Paradigm microplate reader. The relative growth inhibition for each sample is determined by comparison with the values obtained for vehicle treated control samples. Growth inhibition values are plotted with the GraphPad Prism5 software using the 4-parameter logistic fit to obtain IC50 values, which corresponds to the growth inhibitory potency of the compound.
(§4) This example illustrates the use of well-established human colon tumor cell lines with widely divergent Ras activation status to determine selectivity values for exemplary compounds of the present invention. Cell lines thus employed in this example were HCT-116, a highly Ras-driven line expressing mutant Ras, SW-480, another strongly Ras-driven line expressing mutant Ras, and HT-29, a non-Ras-driven line expressing wild-type, non-mutated Ras. Cells were plated at 5000 cells/well in 96-well plates, and viable cell numbers were measured using the Cell Titer Glo ATP luminescence assay (Promega). FIGS. 5A-5F show results of these studies for exemplary compounds 054, 058, 057, 055, and 056, respectively. The calculated HT-29/HCT-116 selectivity values for the first five of the aforementioned compounds were 14, 13, 18, 11 and 5, respectively. The calculated HT-29/SW-480 selectivity values for the aforementioned compounds were 16, 16, 19, 13 and 5, respectively.

For assay [3], the system named is HCT-116 colon tumor cells expressing mutant Ras, compared to HT-29 expressing wild-type Ras. Briefly: Ras selectivity by growth inhibition, HT-29 versus HCT-116. It is filed as cell-based, human. The note with it: ratio of IC50 in HT-29 to IC50 in HCT-116; 5000 cells/well, 96-well plates, Cell Titer Glo. How it is done:
as §3, §4

Assay [4] has as its system panel of human colorectal cancer cell lines. In words: Growth inhibition by known Ras pathway inhibitors across the cell line panel. The note with it: comparison of potency across cell lines with differing Ras activation. The class given is cell-based. Here is the method:
This example illustrates cell growth assays that can be employed in the present invention. Cells can include A-549, HT-29, MDA-MB-231, Colo-205, Caco2, HCT-116, SW-480, and DLD-1 human cancer cells obtained from the American Type Culture Collection (ATCC). Human tumor cells are cultured using standard methods in RPMI-1640 growth medium supplemented with 5% fetal bovine serum (FBS). Normal rat kidney (NRK) and Ki-Ras transformed NRK cells (K-NRK) are obtained from ATCC, and were cultured according to supplier recommendations. CellTiter-Glo ATP cell growth assay reagents are obtained from Promega and used according to the manufacturer's protocol. […] At the end of a 3-day treatment period, growth inhibition is analyzed using a bioluminescent assay of ATP concentration (Promega CellTiter-Glo) according to the manufacturer's protocol. The resulting luminescence is measured using the luminescence cartridge of the Molecular Devices Spectramax Paradigm microplate reader. The relative growth inhibition for each sample is determined by comparison with the values obtained for vehicle treated control samples. […]
This example illustrates the levels of Ras activation in different colorectal cancer cells. […] The ratio of the intensity of the Ras to GAPDH bands was expressed as relative Ras activation, which is presented above each lane in FIG. 4. […]

The mark [5] stands for this setting: Homo sapiens, Caco-2, 384-well plates.
[6] abbreviates: Homo sapiens, DLD-1, 384-well plates.
The mark [7] stands for this setting: Homo sapiens, SW480, 384-well plates.
[8] abbreviates: Homo sapiens, HT-29, 384-well plates.
Where [9] appears, read: Homo sapiens, HCT-116, 384-well plates.
The mark [10] stands for this setting: Homo sapiens, COLO 205, 384-well plates.

Consider `Cc1onc(C(=O)N2CCN(C(c3ccc(Cl)cc3)c3ccc(Cl)cc3)CC2)c1[N+](=O)[O-]` [ML210], for which, in assay [1], the “selectivity versus cells lacking oncogenic Ras” value is reported as 4 fold. The IC50 in assay [1] (read-out: IC50, growth of cells expressing mutant Ras) was 0.071 µM.
In the case of `CCCS(=O)(=O)Nc1ccc(F)c(C(=O)c2c[nH]c3ncc(-c4ccc(Cl)cc4)cc23)c1F` [Vemurafenib], the IC50 in the assay with Caco-2 (setting [5]) is 5.2 µM; in the assay with DLD-1 (setting [6]) it was 5.62 µM; in the assay on SW-480 (setting [7]), 6.86 µM; in the assay on HT-29 (setting [8]), 5.1 µM; in the assay on HCT-116 (setting [9]) it was 5.99 µM; in the assay with COLO-205 (setting [10]), 0.151 µM.
As for `COc1cc(/C=C2/C(C)=C(CC(=O)Nc3ccc(F)cc3)c3cc(F)ccc32)cc(OC)c1O` [Compound 054, (Z)-2-(5-fluoro-1-(4-hydroxy-3,5-dimethoxybenzylidene)-2-methyl-1H-inden-3-yl)-N-(4-fluorophenyl)acetamide], the HT-29/SW-480 selectivity value in [2] is on record as 16. The HT-29/HCT-116 selectivity value in assay [3] is 14.
Consider `Cn1cnc2c(F)c(Nc3ccc(Br)cc3Cl)c(C(=O)NOCCO)cc21` [Selumetinib], for which the IC50 in the assay with Caco-2 (setting [5]) was over 20 µM; with DLD-1 (setting [6]) it was at least 20.4 µM; with SW-480 (setting [7]) it was over 20 µM; with HT-29 (setting [8]), 0.854 µM; in the assay on HCT-116 (setting [9]), 4.11 µM; in the assay on COLO-205 (setting [10]) it was 0.0046 µM.
Consider `COc1cc(/C=C2/C(C)=C(CC(=O)Nc3ccc(Cl)cc3)c3cc(F)ccc32)cc(OC)c1O` [Compound 055, (Z)—N-(4-chlorophenyl)-2-(5-fluoro-1-(4-hydroxy-3,5-dimethoxybenzylidene)-2-methyl-1H-inden-3-yl)acetamide], for which the HT-29/SW-480 selectivity value in assay [2] came to 13. In addition, the HT-29/HCT-116 selectivity value in assay [3] is reported as 11.
As for `OCCn1cc(-c2ccc3c(c2)CC/C3=N\O)c(-c2ccncc2)n1` [GDC0879], the IC50 in the assay on Caco-2 (setting [5]) is over 20 µM; in the assay on DLD-1 (setting [6]), 7.64 µM; in the assay with SW-480 (setting [7]), over 20 µM; in the assay with HT-29 (setting [8]) it was at least 23.6 µM; in the assay on HCT-116 (setting [9]), 8.14 µM; with COLO-205 (setting [10]) it was 0.0758 µM.
On to `COc1cc(/C=C2/C(C)=C(CC(=O)Nc3ccc(Br)cc3)c3cc(F)ccc32)cc(OC)c1O` [Compound 057, (Z)—N-(4-bromophenyl)-2-(5-fluoro-1-(4-hydroxy-3,5-dimethoxybenzylidene)-2-methyl-1H-inden-3-yl)acetamide], for which the HT-29/SW-480 selectivity value in assay [2] is 19. Besides, the HT-29/HCT-116 selectivity value in [3] is recorded as 18.
Taken in the same sequence, the figures for `COc1cc(/C=C2/C(C)=C(CC(=O)Nc3cccc(Br)c3)c3cc(F)ccc32)cc(OC)c1O` [Compound 058, (Z)—N-(3-bromophenyl)-2-(5-fluoro-1-(4-hydroxy-3,5-dimethoxybenzylidene)-2-methyl-1H-inden-3-yl)acetamide] were 16 and 13.
Turning to `COc1cc(/C=C2/C(C)=C(CC(=O)Nc3ccc(Cl)c(Cl)c3)c3cc(F)ccc32)cc(OC)c1O` [Compound 056, (Z)—N-(3,4-dichlorophenyl)-2-(5-fluoro-1-(4-hydroxy-3,5-dimethoxybenzylidene)-2-methyl-1H-inden-3-yl)acetamide], the HT-29/SW-480 selectivity value in assay [2] was found to be 5. The HT-29/HCT-116 selectivity value in assay [3] turned out to be 5.
Consider `O=C1Nc2ccc(I)cc2/C1=C/c1cc(Br)c(O)c(Br)c1` [GW5074], for which the IC50 is over 20 µM in the assay on Caco-2 (384-well plates); 7.75 µM with DLD-1 (384-well plates); 8.07 µM with SW-480 (384-well plates); 19.1 µM in the assay with HT-29 (384-well plates); 15.8 µM with HCT-116 (384-well plates); 7.1 µM in the assay on COLO-205 (384-well plates). Moreover, in assay [4], the “selectivity with regard to Ras activation” value is reported as “did not show selectivity for cell lines expressing activated Ras”.
